The target in assay [1] is EGFR L858R/T790M/C797S (Homo sapiens (Human), UniProt P00533, C797S/L858R/T790M). Put plainly: TR-FRET assay for ERBB kinases. Type of assay: biochemical. The note with it: geometric mean if measured more than once. As to the method:
(§1) TR-FRET Assay for ERBB Kinases
(§2) All compounds and PROTACs were serially diluted in three-fold increments using 100% DMSO, followed by an intermediate 10-fold dilution using Buffer A (50 mM HEPES, pH 7.5, 50 mM NaCl, 10 mM MgCl2, 1 mM DTT, and 0.1% Pluronic F-68). […] Next, 10 uL of protein kinase in Buffer A was added to each well of the assay plate and pre-incubated with compound for 10 minutes. Kinase reactions were then initiated by addition of 5 uL substrate mix containing 3 mM ATP and 30 uM fluorescein-labeled Poly-GluTyr (Thermo Fisher, #PV3610) in Buffer A and allowed to proceed for 10 minutes at room temperature. Reactions were quenched by addition of a 5 uL mixture containing 5 nM LanthaScreen® Tb-pY20 Antibody (Thermo Fisher, #PV3552) and 40 mM EDTA in Buffer A. Assay plates were then read using a Synergy2 (Biotek Instruments, Winooski, Vt.) via excitation thru a 340/20 nm bandpass filter and emission collected thru 490/10 nm (donor) and 520/25 nm (acceptor) bandpass filters.
(In general: TR-FRET usually uses a lanthanide donor and a delayed reading to cut background.)

The target of assay [2] is EGFR L858R/T790M (Homo sapiens (Human), UniProt P00533, L858R/T790M). Kind of assay: TR-FRET assay for ERBB kinases. Type of assay: biochemical. The note with it: geometric mean if measured more than once. As to the method:
as §1, §2

In assay [3] the target is EGFR WT (Homo sapiens (Human), UniProt P00533). Kind of assay: TR-FRET assay for ERBB kinases. It is filed as biochemical. The note with it: geometric mean if measured more than once. As to the method: as §1, §2
For assay [4], the target named is EGFR L858R/T790M/C797S triple mutant (H520*) (Homo sapiens (Human), UniProt P00533, C797S/L858R/T790M). Kind of assay: EGFR protein degradation assay (Western blot). It is filed as cell-based. The note with it: 72 hours, 300 nM to 10 nM. As to the method: (§3) EGFR Protein Degradation assay
Cells were incubated overnight at 37° C., 5% CO2 prior to compound addition. A 10 mM compound stock in DMSO was serially diluted in DMSO to provide the following stock concentrations: 1, 0.3, 0.1, 0.03 and 0.01 mM. An appropriate volume of each compound dilution, together with a DMSO vehicle control, was added to media to provide a 2× compound solution. […] At the end of the compound treatment, cells were washed once with ice-cold phosphate-buffered saline (PBS) and treated with lysis solution (1× lysis buffer, Cell Signaling Technologies (CST #9803) supplemented with Piarce™ protease inhibitors, #A32953, Thermo Fisher Scientific, TFS). Lysates were collected and clarified of cell debris by spinning at 10K rpm for 10 minutes. A specific volume of supernatant was retrieved for protein quantification (Pierce™ BCA kit, TFS #23225) and for Western analysis. Loading buffer supplemented with EDTA and reducing agent was added to each supernatant. A specific volume of supernatant (determined by protein assay: […] loaded per sample) was loaded into a NuPAGE™ 4-12% Bis-Tris gel (TFS). Samples were run at 165V in MOPS running buffer for 2 hours and then transferred to PVDF blotting membrane using a dry blotting system (iBlot2, TFS). Membranes were blocked in Tris-buffered saline supplemented with Tween, 0.1% (TBST) containing 5% non-fat dry milk, (AmericanBio). Following block, membranes were washed once with TBST. […] Membranes were washed 3× with TBST prior to addition of secondary antibody (1:10 000, anti-rabbit HRP-linked, CST #7074) in TBST with 3% BSA and then incubated at room temperature for one hour. Membranes were then washed 3× with TBS and signal developed by exposure to developer (SuperSignal West Femto, TFS) for 5 minutes. Membranes were then immediately imaged using a BioRad Chemidoc.
(In general: A western blot detects proteins with antibodies after separation by electrophoresis.)

The target of assay [5] is EGFR L858R/T790M double mutant (H1975) (Homo sapiens (Human), UniProt P00533, L858R/T790M). Kind of assay: EGFR protein degradation assay (Western blot). Type of assay: cell-based. The note with it: 72 hours, 300 nM to 10 nM. Here is the method:
as §3
Cells expressing the appropriate form of EGFR were seeded in 6-well plates (300,000 cells per well) and allowed to adhere to the plate overnight. […] To harvest cells, media was removed and cells were washed once with ice-cold phosphate-buffered saline (PBS) prior to the addition of 400 μl lysis buffer (Cell Signaling Technology) supplemented with a protease inhibitor cocktail (Thermo Scientific). Cells were scraped from the plate and the cell lysate transferred to an Eppendorf tube and then clarified by a single spin at 10 000 rpm for 10 minutes. The protein concentration of each lysate was determined (BCA kit, Thermo Scientific) prior to the addition of loading buffer (Invitrogen) and reducing agent (Invitrogen). 10 μg protein of each lysate was loaded on an SDS/PAGE gel and run at 165V for 2 hours. Following transfer to a PVDF membrane (iBlot2, Thermo Fisher Scientific), the membrane was blocked in Tris-buffered saline containing 0.1% Tween-20 (TBS-T) and supplemented with 5% powdered milk for 1 hour. Membranes were then probed with EGFR and tubulin (loaded control) primary antibodies in TBS-T containing 3% bovine serum albumin (BSA) overnight at 4° C. Membranes were washed thrice with TBS-T before incubation with secondary antibody in TBS-T containing 3% bovine serum albumin (BSA) and incubated for 1 hour at room temperature. Following 3 further washes with TBS, membrane proteins of interest were detected by enzyme-linked chemiluminescence (ECL) using a Chemidoc (Bio-Rad).

For assay [6], the target named is EGFR Exon20NPG (Homo sapiens (Human), UniProt P00533, INS770NPG). Put plainly: TR-FRET assay for ERBB kinases. Type of assay: biochemical. The note with it: geometric mean if measured more than once. Here is the method:
as §1
All compounds and PROTACs were serially diluted in three-fold increments using 100% DMSO, followed by an intermediate 10-fold dilution using Buffer A (50 mM HEPES, pH 7.5, 50 mM NaCl, 10 mM MgCl2, 1 mM DTT, and 0.1% Pluronic F-68). Two microliters of serially diluted compound or PROTAC were then transferred to black 384-well Proxiplates (PerkinElmer, #6008260) using an Integra Viaflo96. Next, 10 uL of protein kinase in Buffer A was added to each well of the assay plate and pre-incubated with compound for 10 minutes. Kinase reactions were then initiated by addition of 5 uL substrate mix containing 3 mM ATP and 30 uM fluorescein-labeled Poly-GluTyr (Thermo Fisher, #PV3610) in Buffer A and allowed to proceed for 10 minutes at room temperature. Reactions were quenched by addition of a 5 uL mixture containing 5 nM LanthaScreen® Tb-pY20 Antibody (Thermo Fisher, #PV3552) and 40 mM EDTA in Buffer A. Assay plates were then read using a Synergy2 (Biotek Instruments, Winooski, Vt.) via excitation thru a 340/20 nm bandpass filter and emission collected thru 490/10 nm (donor) and 520/25 nm (acceptor) bandpass filters.

The results in this text go back to patent publication US10994015B2, “EGFR proteolysis targeting chimeric molecules and associated methods of use” (Arvinas Operations, Inc., priority 2016, dated 2021).

EGFR WT, sequence (P00533 25-1210): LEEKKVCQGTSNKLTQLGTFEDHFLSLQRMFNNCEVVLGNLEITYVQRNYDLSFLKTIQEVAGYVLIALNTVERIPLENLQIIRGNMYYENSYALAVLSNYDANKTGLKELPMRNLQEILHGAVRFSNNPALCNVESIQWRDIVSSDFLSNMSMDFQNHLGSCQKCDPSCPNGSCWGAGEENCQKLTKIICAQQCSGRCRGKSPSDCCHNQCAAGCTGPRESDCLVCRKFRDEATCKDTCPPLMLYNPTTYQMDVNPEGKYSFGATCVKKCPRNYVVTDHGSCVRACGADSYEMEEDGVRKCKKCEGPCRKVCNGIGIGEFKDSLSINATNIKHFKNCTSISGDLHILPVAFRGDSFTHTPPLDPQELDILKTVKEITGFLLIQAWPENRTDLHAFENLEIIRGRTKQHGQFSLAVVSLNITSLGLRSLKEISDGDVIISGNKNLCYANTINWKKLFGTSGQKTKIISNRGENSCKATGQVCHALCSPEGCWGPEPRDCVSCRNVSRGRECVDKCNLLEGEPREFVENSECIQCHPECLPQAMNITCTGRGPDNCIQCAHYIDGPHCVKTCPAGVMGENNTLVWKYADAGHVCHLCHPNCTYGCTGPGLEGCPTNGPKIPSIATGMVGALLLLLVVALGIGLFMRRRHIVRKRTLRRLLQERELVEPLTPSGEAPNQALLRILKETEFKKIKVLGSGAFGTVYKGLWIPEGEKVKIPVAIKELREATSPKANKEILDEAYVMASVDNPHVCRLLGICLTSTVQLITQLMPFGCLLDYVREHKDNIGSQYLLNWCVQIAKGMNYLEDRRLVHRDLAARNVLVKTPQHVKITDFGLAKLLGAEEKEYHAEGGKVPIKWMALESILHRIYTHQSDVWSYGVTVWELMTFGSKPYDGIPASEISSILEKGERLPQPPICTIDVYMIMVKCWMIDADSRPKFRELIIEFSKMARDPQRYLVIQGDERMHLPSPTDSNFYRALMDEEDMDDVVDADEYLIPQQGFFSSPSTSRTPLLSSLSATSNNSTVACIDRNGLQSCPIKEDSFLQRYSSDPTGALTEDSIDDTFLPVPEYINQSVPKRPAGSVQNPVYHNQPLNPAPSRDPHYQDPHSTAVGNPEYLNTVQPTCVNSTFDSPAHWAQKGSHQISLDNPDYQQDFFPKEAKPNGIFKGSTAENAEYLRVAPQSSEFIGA
EGFR L858R/T790M/C797S triple mutant (H520*), sequence (P00533 25-1210 T790M/C797S/L858R): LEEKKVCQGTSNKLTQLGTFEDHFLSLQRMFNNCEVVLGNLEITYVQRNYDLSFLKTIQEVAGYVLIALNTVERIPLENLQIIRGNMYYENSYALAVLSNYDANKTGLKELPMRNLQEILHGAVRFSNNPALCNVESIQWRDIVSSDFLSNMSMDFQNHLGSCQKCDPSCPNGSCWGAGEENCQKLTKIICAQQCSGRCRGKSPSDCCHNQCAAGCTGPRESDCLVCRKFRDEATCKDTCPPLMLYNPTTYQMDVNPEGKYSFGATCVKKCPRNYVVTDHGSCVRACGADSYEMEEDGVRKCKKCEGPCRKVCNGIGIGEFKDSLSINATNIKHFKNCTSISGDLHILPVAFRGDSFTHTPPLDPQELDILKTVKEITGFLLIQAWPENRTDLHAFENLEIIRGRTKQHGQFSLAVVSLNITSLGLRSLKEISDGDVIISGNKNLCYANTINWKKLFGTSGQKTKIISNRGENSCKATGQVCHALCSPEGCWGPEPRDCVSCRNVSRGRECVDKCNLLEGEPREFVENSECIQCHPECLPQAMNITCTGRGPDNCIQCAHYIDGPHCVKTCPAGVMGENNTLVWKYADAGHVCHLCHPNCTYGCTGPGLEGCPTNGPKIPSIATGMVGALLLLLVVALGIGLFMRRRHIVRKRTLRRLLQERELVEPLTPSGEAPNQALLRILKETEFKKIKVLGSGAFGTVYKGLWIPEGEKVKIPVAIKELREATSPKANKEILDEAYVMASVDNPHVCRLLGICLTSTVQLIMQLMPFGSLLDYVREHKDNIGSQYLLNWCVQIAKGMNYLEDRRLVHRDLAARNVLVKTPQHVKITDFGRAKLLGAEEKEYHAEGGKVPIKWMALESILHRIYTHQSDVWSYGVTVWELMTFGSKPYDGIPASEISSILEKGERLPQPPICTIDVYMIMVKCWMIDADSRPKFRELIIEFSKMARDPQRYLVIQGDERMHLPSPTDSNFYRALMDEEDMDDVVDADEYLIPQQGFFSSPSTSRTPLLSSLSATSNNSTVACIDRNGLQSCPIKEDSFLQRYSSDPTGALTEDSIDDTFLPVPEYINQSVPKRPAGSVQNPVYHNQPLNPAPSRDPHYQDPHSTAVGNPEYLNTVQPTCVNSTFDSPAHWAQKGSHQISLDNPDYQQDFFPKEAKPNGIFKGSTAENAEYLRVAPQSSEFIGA
EGFR L858R/T790M/C797S, sequence (P00533 25-1210 T790M/C797S/L858R): as above
EGFR Exon20NPG, sequence (P00533 other isoform, or with tags, fused parts or gaps del 1-694/ins NPG behind 770 limits assumed): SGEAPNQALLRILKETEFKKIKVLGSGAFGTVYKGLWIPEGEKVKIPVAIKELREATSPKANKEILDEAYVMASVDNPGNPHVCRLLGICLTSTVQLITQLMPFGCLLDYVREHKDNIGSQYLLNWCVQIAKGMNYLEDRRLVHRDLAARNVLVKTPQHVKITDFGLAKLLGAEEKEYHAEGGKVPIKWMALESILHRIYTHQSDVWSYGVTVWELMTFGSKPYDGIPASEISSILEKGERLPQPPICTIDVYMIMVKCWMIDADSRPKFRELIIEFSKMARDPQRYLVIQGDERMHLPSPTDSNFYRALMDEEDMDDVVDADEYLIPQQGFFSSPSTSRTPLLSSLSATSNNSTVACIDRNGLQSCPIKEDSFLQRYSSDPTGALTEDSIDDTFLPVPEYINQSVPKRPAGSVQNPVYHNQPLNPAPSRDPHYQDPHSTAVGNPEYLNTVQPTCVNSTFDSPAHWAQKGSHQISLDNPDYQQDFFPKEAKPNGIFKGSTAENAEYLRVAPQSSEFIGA

With `Cc1ncsc1-c1ccc([C@H](C)NC(=O)[C@@H]2C[C@@H](O)CN2C(=O)[C@@H](NC(=O)COCCOCCOCCc2ccc(OC3CCN(c4nccc(Nc5cc6c(cn5)nc(C)n6C(C)C)n4)CC3)cc2)C(C)(C)C)cc1` [Example 291, (2S,4R)-1-((S)-2-(Tert-butyl)-14-(4-((1-(4-((1-isopropyl-2-methyl-1H-imidazo[4,5-c]pyridin-6-yl)amino)pyrimidin-2-yl)piperidin-4-yl)oxy)phenyl)-4-oxo-6,9,12-trioxa-3-azatetradecanoyl)-4-hydroxy-N—((S)-1-(4-(4-methylthiazol-5-yl)phenyl)ethyl)pyrrolidine-2-carboxamide], the IC50 – broadly, the concentration at which inhibition is half-maximal – in assay [1] is above 60 µM; in assay [2], above 60 µM; in assay [3], 14 µM. In addition, the “EGFR protein remaining, EGFR L858R/T790M/C797S triple mutant” value in assay [4] is on record as “C (>80% EGFR protein remaining after 72 hours of incubation with the test compound at a concentration of 300 nM)”.

Turning to `COC1CCN(c2nccc(Nc3cc4c(cn3)nc(COCCN3CCN(c5ccc(O[C@H]6C[C@H](OCC(=O)N[C@H](C(=O)N7C[C@H](O)C[C@H]7C(=O)NCc7ccc(-c8scnc8C)cc7)C(C)(C)C)C6)cc5)CC3)n4C(C)C)n2)CC1` [Example 302, (2S,4R)-4-hydroxy-1-((S)-2-(2-((1r,3s)-3-(4-(4-(2-((1-isopropyl-6-((2-(4-methoxypiperidin-1-yl)pyrimidin-4-yl)amino)-1H-imidazo[4,5-c]pyridin-2-yl)methoxy)ethyl)piperazin-1-yl)phenoxy)cyclobutoxy)acetamido)-3,3-dimethylbutanoyl)-N-(4-(4-methylthiazol-5-yl)benzyl)pyrrolidine-2-carboxamide], the figures for the IC50 in assay [1], in assay [2] and in assay [3] were 0.32 µM, 0.67 µM and above 30 µM, respectively. Moreover, the “EGFR protein remaining, EGFR L858R/T790M/C797S triple mutant” value in assay [4] was “A (≤50% EGFR protein remaining after 72 hours of incubation with the test compound at a concentration between 300 nM and 10 nM)”.

In the case of `COC1CCN(c2nccc(Nc3cc4c(cn3)nc(COCCOCCN3CCN(CCOc5ccc6c(c5)C(=O)N(C5CCC(=O)NC5=O)C6=O)CC3)n4C(C)C)n2)CC1` (centres unmarked) [compound 88], the “EGFR protein remaining, EGFR L858R/T790M double mutant” value in assay [5] is on record as “C (>80% EGFR protein remaining after 72 hours of incubation with the test compound at a concentration of 300 nM)”. Moreover, the IC50 in assay [1] was 9.4 µM; in assay [2], 11 µM; in assay [3], above 30 µM; in assay [6] it was 3.1 µM.

`Cc1ncsc1-c1ccc([C@H](C)NC(=O)[C@H]2C[C@H](O)CN2C(=O)[C@@H](NC(=O)COCCN2CCN(CCCC#Cc3cccc4c3C(=O)N(C(C(=O)Nc3nccs3)c3cc(F)ccc3O)C4)CC2)C(C)(C)C)cc1` (some centres unmarked) [compound 91]: the “EGFR protein remaining, EGFR L858R/T790M double mutant” value in assay [5] is given as “C (>80% EGFR protein remaining after 72 hours of incubation with the test compound at a concentration of 300 nM)”. The IC50 in assay [1] turned out to be 0.66 µM; in assay [2] it was 4.7 µM; in assay [3], 4.3 µM; in assay [6], 8.3 µM.

Regarding `O=C1CCC(N2C(=O)c3ccc(OCCN4CCN(CCCC#Cc5cccc6c5C(=O)N(C(C(=O)Nc5nccs5)c5cc(F)ccc5O)C6)CC4)cc3C2=O)C(=O)N1` (centres unmarked) [compound 94], the “EGFR protein remaining, EGFR L858R/T790M double mutant” value in assay [5] is “C (>80% EGFR protein remaining after 72 hours of incubation with the test compound at a concentration of 300 nM)”. The IC50 was 1.8 µM in assay [1], 6 µM in assay [2], 2.1 µM in assay [3] and 1.5 µM in assay [6].

`O=C1CCC(N2C(=O)c3ccc(N4CCN(CCCC#Cc5cccc6c5C(=O)N(C(C(=O)Nc5nccs5)c5cc(F)ccc5O)C6)CC4)cc3C2=O)C(=O)N1` (centres unmarked) [compound 96]: the “EGFR protein remaining, EGFR L858R/T790M double mutant” value in assay [5] was “C (>80% EGFR protein remaining after 72 hours of incubation with the test compound at a concentration of 300 nM)”. For the same compound, the IC50 is 4.6 µM in assay [1], 10 µM in assay [2], 1.9 µM in assay [3] and 2.5 µM in assay [6].

As for `O=C1CCC(N2C(=O)c3ccc(OCCOCCOCCOCCOCCOCC#Cc4cccc5c4C(=O)N([C@@H](C(=O)Nc4nccs4)c4cc(F)ccc4O)C5)cc3C2=O)C(=O)N1` (some centres unmarked) [compound 263], the “EGFR protein remaining, EGFR L858R/T790M double mutant” value in assay [5] was “C (>80% EGFR protein remaining after 72 hours of incubation with the test compound at a concentration of 300 nM)”. Further, the half-maximal inhibitory concentration (IC50) in assay [1] was found to be 0.79 µM; in assay [2], 11 µM; in assay [3] it was 8.6 µM; in assay [6], 12 µM.

With `O=C1CCC(N2C(=O)c3cccc(NCCOCCOCC#Cc4cccc5c4C(=O)N([C@@H](C(=O)Nc4nccs4)c4cc(F)ccc4O)C5)c3C2=O)C(=O)N1` (some centres unmarked) [compound 264], the “EGFR protein remaining, EGFR L858R/T790M double mutant” value in assay [5] is “C (>80% EGFR protein remaining after 72 hours of incubation with the test compound at a concentration of 300 nM)”. In addition, the IC50 was 1.1 µM in assay [1], above 30 µM in assay [2], 4.2 µM in assay [3] and 24 µM in assay [6].

With `Cc1ncsc1-c1ccc(CNC(=O)[C@@H]2C[C@@H](O)CN2C(=O)C(C(C)C)N2Cc3ccccc3C2=O)c(OCCCCOc2ccc(-c3nccc(Nc4cc5c(cn4)nc(C)n5C(C)C)n3)cc2)c1` (some centres unmarked) [compound 277], the “EGFR protein remaining, EGFR L858R/T790M double mutant” value in assay [5] is “C (>80% EGFR protein remaining after 72 hours of incubation with the test compound at a concentration of 300 nM)”. Also, the IC50 in assay [1], in assay [2], in assay [3] and in assay [6] was above 30 µM throughout.

For the compound `O=C1CCC(N2C(=O)c3ccc(N4CCN(CCCOCCCCNc5cccc6c5C(=O)N(C(C(=O)Nc5nccs5)c5cc(F)ccc5O)C6)CC4)cc3C2=O)C(=O)N1` (centres unmarked) [compound 289], the IC50 was 0.19 µM in assay [1], 1.7 µM in assay [2] and 1.2 µM in assay [3]. Also, the “EGFR protein remaining, EGFR L858R/T790M/C797S triple mutant” value in assay [4] is recorded as “C (>80% EGFR protein remaining after 72 hours of incubation with the test compound at a concentration of 300 nM)”.
